Structures are written as SMILES.

The assay deals with T1, Enoyl-[acyl-carrier-protein] reductase [NADPH] FabI (Staphylococcus aureus (strain MRSA252), UniProt Q6GI75).
T1 sequence (Q6GI75 whole entry): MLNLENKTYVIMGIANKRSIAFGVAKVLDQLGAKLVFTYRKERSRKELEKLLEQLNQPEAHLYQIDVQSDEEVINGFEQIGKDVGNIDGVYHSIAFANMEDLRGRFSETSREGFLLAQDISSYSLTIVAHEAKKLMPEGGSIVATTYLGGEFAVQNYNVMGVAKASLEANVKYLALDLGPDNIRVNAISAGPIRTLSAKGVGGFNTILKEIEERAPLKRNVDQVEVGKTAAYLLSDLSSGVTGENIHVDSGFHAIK
Put plainly: Thermal Shift Assay. The conditions noted are these: pH 7.5. The protocol:
ThermoFluor experiments were carried out in 96-well plates (Concord) using the CFX96 RealTime PCR Detection system and C1000 Thermal Cycler (BioRad).
A word on the Ki: it is a dissociation constant, usually derived from enzyme kinetics or from competition with a known ligand. For `Oc1cc(Br)ccc1Oc1ccccc1` [5-bromo-2-phenoxylphenol], the Ki is 0.06 nM.

As for `Cc1ccccc1Oc1ccc(CCc2ccccc2)cc1O` [PT162], the Ki is 0.5 nM.

Take `CCCCCc1ccc(Oc2ccccc2)c(O)c1` [5-pentyl-2-phenoxylphenol]: the Ki is 0.04 nM.

For the compound `Oc1ccccc1Oc1ccccc1` [2-phenoxylphenol], the inhibition constant (Ki) was determined as 18.9 nM.

On to `Oc1cc(F)ccc1Oc1ccccc1` [PT55], for which the Ki is 1.42 nM.

For `N#Cc1ccccc1Oc1ccc(Br)cc1O` [PT443], the Ki worked out at 0.05 nM.

On to `CCCCCCc1ccc(Oc2ccccc2)c(O)c1` [5-hexyl-2-phenoxyphenol], for which the Ki stood at 0.01 nM.

In the case of `CCCCCCCCc1ccc(Oc2ccccc2)c(O)c1` [5-Octyl-2-phenoxy-phenol], the Ki came out at 0.82 nM.

As to `N#Cc1ccccc1Oc1ccc(F)cc1O` [PT446], the Ki was 1.01 nM.

With `Oc1cc(Cc2ccccc2)ccc1Oc1ccccc1` [PT89], the Ki came to 0.1 nM.

Turning to `CCCCCCc1ccc(Oc2ccccc2N)c(O)c1`, the Ki stood at 0.12 nM.

`CCCc1ccc(Oc2ccccc2)c(O)c1` [PT02]: the Ki was determined as 0.07 nM.

With `C=CCc1ccc(Oc2ccccc2)c(O)c1` [PT68], the Ki stood at 0.11 nM.

Regarding `Cc1ccc(Oc2ccccc2)c(O)c1` [PT53], the Ki amounted to 0.38 nM.
